# In ChEMBL document CHEMBL1201861, “Genomics of Drug Sensitity in Cancer screening data, Wellcome Trust Sanger Institute”:
# Tests used:
# Test in all cases: cells
# MZ1-PC = assay type: functional, cell-based, Homo sapiens; conditions: Homo sapiens, MZ1-PC;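 also: cell viability assay measuring growth inhibition of human MZ1-PC cells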
# Description: SANGER: Inhibition of human MZ1-PC cell growth in a cell viability assay.
# JVM-2 = assay type: functional, cell-based; conditions: Homo sapiens;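 also: growth inhibition of JVM-2 cells determined by a cell viability assay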
# Description: SANGER: Inhibition of human JVM-2 cell growth in a cell viability assay.
# IST-MEL1 = assay type: functional, cell-based, Homo sapiens; conditions: Homo sapiens, IST-MEL1;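 also: growth inhibition of the cell line, read out with a cell viability assay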
# Description: SANGER: Inhibition of human IST-MEL1 cell growth in a cell viability assay.
# LC-2-ad = assay type: functional, cell-based, Homo sapiens; conditions: Homo sapiens, LC-2-ad;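 also: growth inhibition of human LC-2-ad cells, read out with a cell viability assay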
# Description: SANGER: Inhibition of human LC-2-ad cell growth in a cell viability assay.
# D-542MG = assay type: functional, cell-based, Homo sapiens; conditions: Homo sapiens, D-542MG
# Description: SANGER: Inhibition of human D-542MG cell growth in a cell viability assay.
# KOSC-2 = assay type: functional, cell-based, Homo sapiens; conditions: Homo sapiens, KOSC-2;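 also: growth inhibition of KOSC-2 cells, read out by a cell viability assay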
# Description: SANGER: Inhibition of human KOSC-2 cell growth in a cell viability assay.
# KMOE-2 = assay type: functional, cell-based; conditions: Homo sapiens;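 also: growth inhibition of human KMOE-2 cells, read out with a cell viability assay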
# Description: SANGER: Inhibition of human KMOE-2 cell growth in a cell viability assay.
# KGN = assay type: functional, cell-based, Homo sapiens; conditions: Homo sapiens, KGN;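 also: growth inhibition of KGN cells, read out with a cell viability assay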
# Description: SANGER: Inhibition of human KGN cell growth in a cell viability assay.
# HT-3 = assay type: functional, cell-based, Homo sapiens; conditions: Homo sapiens, HT-3;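 also: growth inhibition measured with a cell viability readout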
# Description: SANGER: Inhibition of human HT-3 cell growth in a cell viability assay.
# SK-MEL-2 = assay type: functional, cell-based, Homo sapiens; conditions: Homo sapiens, SK-MEL-2;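 also: growth inhibition of human SK-MEL-2 cells measured with a cell viability assay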
# Description: SANGER: Inhibition of human SK-MEL-2 cell growth in a cell viability assay.
# DEL = assay type: functional, cell-based; conditions: Homo sapiens;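 also: growth inhibition of the human DEL cell line, read out with a cell viability assay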
# Description: SANGER: Inhibition of human DEL cell growth in a cell viability assay.
# OE33 = assay type: functional, cell-based, Homo sapiens; conditions: Homo sapiens, OE33;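 also: growth inhibition of human OE33 cells, measured by a cell viability assay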
# Description: SANGER: Inhibition of human OE33 cell growth in a cell viability assay.
# OAW-42 = assay type: functional, cell-based, Homo sapiens; conditions: Homo sapiens, OAW-42;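 also: growth inhibition of OAW-42 cells, read out with a cell viability assay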
# Description: SANGER: Inhibition of human OAW-42 cell growth in a cell viability assay.
# LOX IMVI = assay type: functional, cell-based; conditions: Homo sapiens
# Description: SANGER: Inhibition of human LOXIMVI cell growth in a cell viability assay.
# SH-4 = assay type: functional, cell-based, Homo sapiens; conditions: Homo sapiens, SH-4;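 also: growth inhibition of SH-4 cells, read out with a cell viability assay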
# Description: SANGER: Inhibition of human SH-4 cell growth in a cell viability assay.
# MN-60 = assay type: functional, cell-based; conditions: Homo sapiens;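 also: growth inhibition of the MN-60 cell line, determined with a cell viability assay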
# Description: SANGER: Inhibition of human MN-60 cell growth in a cell viability assay.
# NTERA-2-cl-D1 = assay type: functional, cell-based, Homo sapiens; conditions: Homo sapiens, NTERA-2-cl-D1;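 also: inhibition of cell growth, measured with a cell viability assay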
# Description: SANGER: Inhibition of human NTERA-S-cl-D1 cell growth in a cell viability assay.
# KYSE-510 = assay type: functional, cell-based, Homo sapiens; conditions: Homo sapiens, KYSE-510;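 also: cell viability readout used to measure how strongly growth of the cell line is suppressed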
# Description: SANGER: Inhibition of human KYSE-510 cell growth in a cell viability assay.
# MZ2-MEL = assay type: functional, cell-based, Homo sapiens; conditions: Homo sapiens, MZ2-MEL;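 also: growth inhibition of MZ2-MEL cells read out with a cell viability assay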
# Description: SANGER: Inhibition of human MZ2-MEL cell growth in a cell viability assay.
# KARPAS-299 = assay type: functional, cell-based; conditions: Homo sapiens
# Description: SANGER: Inhibition of human KARPAS-299 cell growth in a cell viability assay.
# SK-MEL-1 = assay type: functional, cell-based; conditions: Homo sapiens;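 also: growth inhibition of human SK-MEL-1 cells, read out by a cell viability assay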
# Description: SANGER: Inhibition of human SK-MEL-1 cell growth in a cell viability assay.
# SW1710 = assay type: functional, cell-based, Homo sapiens; conditions: Homo sapiens, SW1710;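 also: growth inhibition of SW1710 cells, determined with a cell viability assay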
# Description: SANGER: Inhibition of human SW1710 cell growth in a cell viability assay.
# HT-144 = assay type: functional, cell-based, Homo sapiens; conditions: Homo sapiens, HT-144
# Description: SANGER: Inhibition of human HT-144 cell growth in a cell viability assay.
# BHT-101 = assay type: functional, cell-based, Homo sapiens; conditions: Homo sapiens, BHT-101
# Description: SANGER: Inhibition of human BHT-101 cell growth in a cell viability assay.
# HuP-T3 = assay type: functional, cell-based, Homo sapiens; conditions: Homo sapiens, HuP-T3;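 also: HuP-T3 cell growth inhibition, read out with a cell viability assay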
# Description: SANGER: Inhibition of human HuP-T3 cell growth in a cell viability assay.
# U-251 = assay type: functional, cell-based, Homo sapiens; conditions: Homo sapiens, U-251;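 also: growth inhibition of human U-251 cells, read out through a cell viability assay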
# Description: SANGER: Inhibition of human U251 cell growth in a cell viability assay.
# LCLC-103H cell line = assay type: functional, cell-based, Homo sapiens; conditions: Homo sapiens, LCLC-103H
# Description: SANGER: Inhibition of human LCLC-103H cell growth in a cell viability assay.
# IGROV-1 = assay type: functional, cell-based, Homo sapiens; conditions: Homo sapiens, IGROV-1;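 also: reduction of IGROV-1 cell growth, read out with a viability assay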
# Description: SANGER: Inhibition of human IGROV-1 cell growth in a cell viability assay.
# HT-29 = assay type: functional, cell-based, Homo sapiens; conditions: Homo sapiens, HT-29;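 also: growth inhibition of human HT-29 cells, read out by a cell viability assay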
# Description: SANGER: Inhibition of human HT-29 cell growth in a cell viability assay.
# NCI-H650 = assay type: functional, cell-based, Homo sapiens; conditions: Homo sapiens, NCI-H650;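 also: growth inhibition of NCI-H650 cells, read out by a viability assay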
# Description: SANGER: Inhibition of human NCI-H650 cell growth in a cell viability assay.
# SW837 = assay type: functional, cell-based, Homo sapiens; conditions: Homo sapiens, SW837;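 also: growth inhibition of SW837 cells, determined with a cell viability assay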
# Description: SANGER: Inhibition of human SW837 cell growth in a cell viability assay.
# MPP-89 = assay type: functional, cell-based, Homo sapiens; conditions: Homo sapiens, MPP-89;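 also: growth inhibition of human MPP-89 cells, read out with a cell viability assay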
# Description: SANGER: Inhibition of human MPP-89 cell growth in a cell viability assay.
# FTC-133 = assay type: functional, cell-based, Homo sapiens; conditions: Homo sapiens, FTC-133
# SK-N-AS = assay type: functional, cell-based, Homo sapiens; conditions: Homo sapiens, SK-N-AS;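 also: growth inhibition of human SK-N-AS cells, measured with a cell viability assay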
# Description: SANGER: Inhibition of human SK-N-AS cell growth in a cell viability assay.
# TE-12 = assay type: functional, cell-based; conditions: Homo sapiens;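 also: growth inhibition of TE-12 cells, read out by a cell viability assay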
# Description: SANGER: Inhibition of human TE-12 cell growth in a cell viability assay.
# KYSE-70 cell line = assay type: functional, cell-based, Homo sapiens; conditions: Homo sapiens, KYSE-70;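 also: cell viability assay read-out, with IC50 expressing suppression of KYSE-70 cell growth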
# Description: SANGER: Inhibition of human KYSE-70 cell growth in a cell viability assay.
# LS-1034 = assay type: functional, cell-based, Homo sapiens; conditions: Homo sapiens, LS-1034
# Description: SANGER: Inhibition of human LS-1034 cell growth in a cell viability assay.
# MC116 = assay type: functional, cell-based; conditions: Homo sapiens;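 also: growth inhibition of MC116 cells, read out with a cell viability assay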
# Description: SANGER: Inhibition of human MC116 cell growth in a cell viability assay.
# COR-L23 = assay type: functional, cell-based, Homo sapiens; conditions: Homo sapiens, COR-L23;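 also: cell viability assay measuring how strongly compounds suppress growth of COR-L23 cells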
# Description: SANGER: Inhibition of human COR-L23 cell growth in a cell viability assay.
# PANC-08-13 = assay type: functional, cell-based, Homo sapiens; conditions: Homo sapiens, PANC-08-13;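 also: cell growth inhibition, measured with a cell viability assay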
# Description: SANGER: Inhibition of human PANC-08-13 cell growth in a cell viability assay.
# TE-11 = assay type: functional, cell-based, Homo sapiens; conditions: Homo sapiens, TE-11;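 also: growth inhibition of human TE-11 cells, read out by a cell viability assay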
# Description: SANGER: Inhibition of human TE-11 cell growth in a cell viability assay.
# IST-SL1 = assay type: functional, cell-based, Homo sapiens; conditions: Homo sapiens, IST-SL1;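 also: growth inhibition of human IST-SL1 cells, read out with a cell viability assay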
# Description: SANGER: Inhibition of human IST-SL1 cell growth in a cell viability assay.
# CAL-62 = assay type: functional, cell-based, Homo sapiens; conditions: Homo sapiens, CAL-62;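 also: growth inhibition of CAL-62 cells, read out with a cell viability assay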
# Description: SANGER: Inhibition of human CAL-62 cell growth in a cell viability assay.
# DBTRG-05MG = assay type: functional, cell-based, Homo sapiens; conditions: Homo sapiens, DBTRG-05MG;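 also: cell viability assay measuring growth inhibition of human DBTRG-05MG cells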
# Description: SANGER: Inhibition of human DBTRG-05MG cell growth in a cell viability assay.
# NCI-H23 = assay type: functional, cell-based, Homo sapiens; conditions: Homo sapiens, NCI-H23;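 also: cell viability assay measuring growth inhibition of NCI-H23 cells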
# Description: SANGER: Inhibition of human NCI-H23 cell growth in a cell viability assay.
# NCI-H2228 = assay type: functional, cell-based, Homo sapiens; conditions: Homo sapiens, NCI-H2228;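 also: growth inhibition of human NCI-H2228 cells, read out by a cell viability assay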
# Description: SANGER: Inhibition of human NCI-H2228 cell growth in a cell viability assay.
# UO-31 = assay type: functional, cell-based; conditions: Homo sapiens;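 also: cell viability assay measuring inhibition of cell growth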
# Description: SANGER: Inhibition of human U031 cell growth in a cell viability assay.
# GMS-10 = assay type: functional, cell-based, Homo sapiens; conditions: Homo sapiens, GMS-10;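 also: growth inhibition of GMS-10 cells, read out as cell viability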
# Description: SANGER: Inhibition of human GMS-10 cell growth in a cell viability assay.
# LU-134-A = assay type: functional, cell-based; conditions: Homo sapiens
# Description: SANGER: Inhibition of human LU-134-A cell growth in a cell viability assay.
# NCI-H1623 = assay type: functional, cell-based, Homo sapiens; conditions: Homo sapiens, NCI-H1623;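 also: cell viability assay used as the read-out for growth inhibition of NCI-H1623 cells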
# Description: SANGER: Inhibition of human NCI-H1623 cell growth in a cell viability assay.
# Capan-2 = assay type: functional, cell-based, Homo sapiens; conditions: Homo sapiens, Capan-2;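 also: Capan-2 cell growth inhibition, read out with a viability assay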
# Description: SANGER: Inhibition of human Capan-2 cell growth in a cell viability assay.
structure (smiles),measurement,setting,value
Cn1cc(C2=C(c3ccc(Cl)cc3Cl)C(=O)NC2=O)c2ccccc21 [SB-216763],IC50,MZ1-PC,> 10 µM
same,IC50,JVM-2,> 10 µM
same,IC50,IST-MEL1,> 10 µM
same,IC50,LC-2-ad,> 10 µM
same,IC50,D-542MG,> 10 µM
same,IC50,KOSC-2,> 10 µM
same,IC50,KMOE-2,> 10 µM
same,IC50,KGN,> 10 µM
same,IC50,HT-3,> 10 µM
same,IC50,SK-MEL-2,> 10 µM
same,IC50,DEL,> 10 µM
same,IC50,OE33,> 10 µM
same,IC50,OAW-42,> 10 µM
same,IC50,LOX IMVI,> 10 µM
same,IC50,SH-4,> 10 µM
same,IC50,MN-60,> 10 µM
same,IC50,NTERA-2-cl-D1,> 10 µM
same,IC50,KYSE-510,> 10 µM
same,IC50,MZ2-MEL,> 10 µM
same,IC50,KARPAS-299,> 10 µM
same,IC50,SK-MEL-1,> 10 µM
same,IC50,SW1710,> 10 µM
same,IC50,HT-144,> 10 µM
same,IC50,BHT-101,> 10 µM
same,IC50,HuP-T3,> 10 µM
same,IC50,U-251,> 10 µM
same,IC50,LCLC-103H cell line,> 10 µM
same,IC50,IGROV-1,> 10 µM
same,IC50,HT-29,> 10 µM
same,IC50,NCI-H650,> 10 µM
same,IC50,SW837,> 10 µM
same,IC50,MPP-89,> 10 µM
same,IC50,FTC-133,> 10 µM
same,IC50,SK-N-AS,> 10 µM
same,IC50,TE-12,> 10 µM
same,IC50,KYSE-70 cell line,> 10 µM
same,IC50,LS-1034,> 10 µM
same,IC50,MC116,> 10 µM
same,IC50,COR-L23,> 10 µM
same,IC50,PANC-08-13,> 10 µM
same,IC50,TE-11,> 10 µM
same,IC50,IST-SL1,9.02 µM
same,IC50,CAL-62,> 10 µM
same,IC50,DBTRG-05MG,> 10 µM
same,IC50,NCI-H23,> 10 µM
same,IC50,NCI-H2228,> 10 µM
same,IC50,UO-31,> 10 µM
same,IC50,GMS-10,> 10 µM
same,IC50,LU-134-A,> 10 µM
same,IC50,NCI-H1623,> 10 µM
same,IC50,Capan-2,> 10 µM
Cn1cncc1[C@@](N)(c1ccc(Cl)cc1)c1ccc2c(c1)c(-c1cccc(Cl)c1)cc(=O)n2C [TIPIFARNIB],IC50,MZ1-PC,2.82 µM
same,IC50,JVM-2,> 16 µM
same,IC50,IST-MEL1,2.82 µM
same,IC50,LC-2-ad,1.49 µM
same,IC50,D-542MG,1.41 µM
same,IC50,KOSC-2,> 16 µM
same,IC50,KMOE-2,5.18 µM
same,IC50,KGN,0.452 µM
same,IC50,HT-3,> 16 µM
same,IC50,SK-MEL-2,0.484 µM
same,IC50,DEL,1.03 µM
same,IC50,OE33,12.6 µM
same,IC50,OAW-42,0.956 µM
same,IC50,LOX IMVI,> 16 µM
same,IC50,SH-4,1.3 µM
same,IC50,MN-60,> 16 µM
same,IC50,NTERA-2-cl-D1,0.237 µM
same,IC50,KYSE-510,0.977 µM
same,IC50,MZ2-MEL,1.9 µM
same,IC50,KARPAS-299,> 16 µM
same,IC50,SK-MEL-1,> 16 µM
same,IC50,SW1710,0.726 µM
same,IC50,HT-144,1.45 µM
same,IC50,BHT-101,3.09 µM
same,IC50,HuP-T3,> 16 µM
same,IC50,U-251,7.09 µM
same,IC50,LCLC-103H cell line,0.129 µM
same,IC50,IGROV-1,0.208 µM
same,IC50,HT-29,0.547 µM
same,IC50,NCI-H650,0.773 µM
same,IC50,SW837,9.89 µM
same,IC50,MPP-89,> 16 µM
same,IC50,FTC-133,> 16 µM
same,IC50,SK-N-AS,> 16 µM
same,IC50,TE-12,2.82 µM
same,IC50,KYSE-70 cell line,1.41 µM
same,IC50,LS-1034,2.46 µM
same,IC50,MC116,4.03 µM
same,IC50,COR-L23,13.8 µM
same,IC50,PANC-08-13,> 16 µM
same,IC50,TE-11,1.69 µM
same,IC50,IST-SL1,> 16 µM
same,IC50,CAL-62,1.79 µM
same,IC50,DBTRG-05MG,14.4 µM
same,IC50,NCI-H23,> 16 µM
same,IC50,NCI-H2228,4.98 µM
same,IC50,UO-31,10.7 µM
same,IC50,GMS-10,> 16 µM
same,IC50,LU-134-A,> 16 µM
same,IC50,NCI-H1623,> 16 µM
same,IC50,Capan-2,10.6 µM
CCC1=C[C@@H]2CN(C1)Cc1c([nH]c3ccccc13)[C@@](C(=O)OC)(c1cc3c(cc1OC)N(C)[C@H]1[C@@](O)(C(=O)OC)[C@H](OC(C)=O)[C@]4(CC)C=CCN5CC[C@]31[C@@H]54)C2 [VINORELBINE],IC50,MZ1-PC,0.0177 µM
same,IC50,JVM-2,> 0.064 µM
same,IC50,IST-MEL1,> 0.064 µM
same,IC50,LC-2-ad,0.00498 µM
same,IC50,D-542MG,> 0.064 µM
same,IC50,KOSC-2,> 0.064 µM
same,IC50,KMOE-2,> 0.064 µM
same,IC50,KGN,0.00705 µM
same,IC50,HT-3,> 0.064 µM
same,IC50,SK-MEL-2,0.00718 µM
same,IC50,DEL,0.00363 µM
same,IC50,OE33,0.0204 µM
same,IC50,OAW-42,0.0425 µM
same,IC50,LOX IMVI,> 0.064 µM
same,IC50,SH-4,0.0155 µM
same,IC50,MN-60,> 0.064 µM
same,IC50,NTERA-2-cl-D1,0.000939 µM
same,IC50,KYSE-510,0.00419 µM
same,IC50,MZ2-MEL,0.043 µM
same,IC50,KARPAS-299,> 0.064 µM
same,IC50,SK-MEL-1,> 0.064 µM
same,IC50,SW1710,0.00233 µM
same,IC50,HT-144,0.000591 µM
same,IC50,BHT-101,> 0.064 µM
same,IC50,HuP-T3,> 0.064 µM
same,IC50,U-251,0.00689 µM
same,IC50,LCLC-103H cell line,0.00143 µM
same,IC50,IGROV-1,0.0022 µM
same,IC50,HT-29,0.00324 µM
same,IC50,NCI-H650,0.0161 µM
same,IC50,SW837,> 0.064 µM
same,IC50,MPP-89,> 0.064 µM
same,IC50,FTC-133,> 0.064 µM
same,IC50,SK-N-AS,> 0.064 µM
same,IC50,TE-12,> 0.064 µM
same,IC50,KYSE-70 cell line,0.0167 µM
same,IC50,LS-1034,> 0.064 µM
same,IC50,MC116,0.0155 µM
same,IC50,COR-L23,0.00989 µM
same,IC50,PANC-08-13,0.0469 µM
same,IC50,TE-11,0.00916 µM
same,IC50,IST-SL1,0.0393 µM
same,IC50,CAL-62,0.00818 µM
same,IC50,DBTRG-05MG,0.00388 µM
same,IC50,NCI-H23,0.0601 µM
same,IC50,NCI-H2228,0.0129 µM
same,IC50,UO-31,> 0.064 µM
same,IC50,GMS-10,> 0.064 µM
same,IC50,LU-134-A,0.0472 µM
same,IC50,NCI-H1623,0.0285 µM
same,IC50,Capan-2,0.0304 µM
